{"source": "patent US11690828B2", "about": "“Treatment of CNS diseases with sGC stimulators” (Cyclerion Therapeutics, Inc., priority 2016, dated 2023)", "key": {"cGMP [1]": {"system": "cGMP", "assay": "Dose-response compound-induced cGMP in mouse brain (cerebrum)", "format": "in vivo", "conditions": "30 minutes after dosing", "protocol": "Protocol. Experimental Day 1: Fast mice overnight with ad libitum access to water. Experimental Day 2: Mice (n=10 per experimental condition) were dosed P.O. with vehicle (1% hydroxypropyl methyl cellulose, 0.2% Tween80, 0.5% methyl cellulose), 3 or 10 mg/Kg of Compound I-2 prepared in vehicle. Thirty minutes after dosing, under isoflurane anesthesia, each mouse was decapitated and its brain was removed. The cerebrum was separated from each brain and placed in separate 15 ml falcon tubes and flash froze by immersion into liquid nitrogen. The tissue samples were stored at −80 C. cGMP levels in brain were determined by LC/MS. Brain samples were homogenized in an aqueous buffer consisting of 80:20 (V/V %) water:acetic acid using an ultrasonicator probe. Brain homogenates containing sGC compounds and or cGMP were extracted from brain tissue by protein precipitation with an organic solvent containing internal standards (IS) followed by filtration and phospholipid removal using a Phenomenex® Phree™ phospholipid removal plate. Samples were analyzed using liquid chromatography (LC) with tandem mass spectrometric detection (MS/MS) using electrospray ionization. The standard curve concentrations used for quantitation of cGMP and or sGC compound(s) ranged from 0.2 to 400 ng/mL. Protein quantification of brain samples was determined using BCA protein assay kit"}, "BDNF": {"system": "BDNF", "assay": "Effect on BDNF protein in the rat dorsal striatum, quinolinic acid lesion model", "format": "in vivo", "conditions": "10 mg/kg once a day for 7 days", "protocol": "Protocol. Experimental day 1: Rats were deeply anesthetized with isoflurane and each rat received a unilateral infusion of 0.25 μl of 50 mM quinolinic acid (QA) in the dorsal striatum (12.5 nmoles of QA on the left or right hemisphere). The dorsal striatum contralateral to the QA infusion on each rat received a control infusion of 0.25 μl PBS (control side). Some animals were dosed S.C. with vehicle (n=5) or 10 mg/Kg Compound I-2 (n=6) about 30 minutes after QA infusion. Experimental days 2-8: Rats were dosed every 24 h P.O. with Vehicle or 10 mg/Kg Compound I-2. About 24 h after the last dosing of vehicle or Compound I-2, rats were anesthetized, perfused with PBS followed by perfusion with 4% Paraformaldehyde in PBS; brain tissue was collected and placed in a falcon tube covered with 4% Paraformaldehyde (PAF) in PBS for about 14 h at 4° C. and then replaced by PBS with 30% sucrose solution for about 48 h. Brain tissue was cut in 40 μm coronal slices and stored in PBS at 4° C. […] Images from the dorsomedial area around the QA lesion or equivalent area on the control hemisphere were taken using confocal fluorescence microscopy. Images were analyzed using imageJ software to determine the average BDNF intensity in NeuN positive cells."}, "cGMP [2]": {"system": "cGMP", "assay": "Compound-induced cGMP in mouse brain", "format": "in vivo", "protocol": "Protocol. Mice (n=9-10 per experimental condition) were dosed P.O. with vehicle (1% hydroxypropyl methyl cellulose, 0.2% Tween80, 0.5% methyl cellulose), P.O. with 10 mg/Kg of Compound I-2. Thirty minutes after dosing, under isoflurane anesthesia, each mouse was decapitated and its brain was removed and was placed into an ice-cold petri dish containing slushy dissection solution (saturated with 95% O2·5% CO2). Using an ice-cold spatula, the brain was transferred to mouse brain matrix with coronal spacing for slicing at 1 mm intervals, as schematized in the FIGURE below (not to scale, just a scheme). • ?\nThe sliced brain was transferred back into petri dish containing slushy dissection solution with IBMX 0.5 mM (saturated with 95% O2·5% CO2). The dorsal striatum is dissected first, followed by the hippocampus second, followed by the medial prefrontal cortex third, and lastly, the cerebellum fourth. After each region was dissected the “chunk” of tissue was immediately placed into an eppendorf which had been placed on dry ice for the previous 30 minutes. Small pieces of tissue froze very fast, within 10 seconds approximately. After all regions were placed in an eppendorf, eppendorfs were snap frozen by immersion into liquid nitrogen. The tissue samples were stored at −80 C. cGMP levels in brain were determined by LC/MS. Brain samples were homogenized in an aqueous buffer consisting of 80:20 (V/V %) water:acetic acid using an ultrasonicator probe. Brain homogenates containing sGC compounds and or cGMP were extracted from brain tissue by protein precipitation with an organic solvent containing internal standards (IS) followed by filtration and phospholipid removal using a Phenomenex® Phree™ phospholipid removal plate. Samples were analyzed using liquid chromatography (LC) with tandem mass spectrometric detection (MS/MS) using electrospray ionization. The standard curve concentrations used for quantitation of cGMP and or sGC compound(s) ranged from 0.2 to 400 ng/mL. Protein quantification of brain samples was determined using BCA protein assay kit."}, "Healthy rats": {"system": "Healthy rats", "assay": "Healthy rats - tail flick test", "format": "in vivo, rat", "conditions": "Compound I-2 p.o. 10 mg/kg; 120 minutes after treatment", "protocol": "Tail Flick Test. A radiant heat was applied on the tail. When the rat felt discomfort, it reacted by a sudden tail movement (tail flick) which automatically stopped the stimulation and the timer for the measurement by the animal reaction time or nociceptive reaction latency (period from the beginning of the stimulation until detection of the response of the animal). A cut-off was previously fixed at 10 sec in order to prevent tissue damage.\n(§1) Testing: 120 minutes after treatment. N=4/model/test. Results are expressed for each group as a percentage of activity calculated from the mean value of the vehicle-treated animals and compared to naïve animals, control paw, or cut-off value, depending on the test."}, "male Long Evans rats": {"system": "male Long Evans rats", "assay": "Novel Object Recognition (NOR) test, MK-801-induced memory deficit", "format": "in vivo, rat"}, "rats": {"system": "rats", "assay": "Carrageenan - paw pressure test", "format": "in vivo, rat", "conditions": "Compound I-2 p.o. 10 mg/kg; 120 minutes after treatment", "protocol": "Paw Pressure Test. Static mechanical hyperalgesia is measured. This test requires the application of an increasing pressure on the hind paws between a flat surface and a blunt pointer. To evaluate the analgesic action of a compound, one hind paw of the animal was inflamed by an injection or injured by ligation, while the other hind paw was not injured or inflamed. The apparatus exerted a steadily increasing force on the hind paws. The reaction threshold was determined as the pressure (g) required to elicit paw withdrawal and/or vocalization. The animals were gently handled by the experimenter and static mechanical hyperalgesia were assessed two times for both hind paws.\nCarrageenan. Induction: Three hours before assessment of the nociceptive threshold using the paw pressure test 100 μL of a 2% carrageenan suspension was injected into the plantar aspect of the right hind paw. The Paw Pressure test was then conducted as described above.\nas §1"}, "[3]": {"conditions": "I-2 0.1 mg/kg, compared to Vehicle/MK-801 group"}}, "data": [{"smiles": "Fc1ccccc1Cn1nc(-c2nc(C(F)(F)F)n[nH]2)c2cccnc21", "note": "[Compound I-2]", "values": [{"measurement": "cGMP in mouse brain as compared to vehicle dosed animals", "setting": "cGMP [1]; acute 3 mg/Kg P.O.", "value": "increases"}, {"measurement": "cGMP in mouse brain as compared to vehicle dosed animals", "setting": "cGMP [1]; acute 10 mg/Kg P.O.", "value": "increases"}, {"measurement": "BDNF averaged intensity in NeuN positive cells around the QA lesion, as compared to vehicle treatment", "setting": "BDNF", "value": "increase"}, {"measurement": "BDNF averaged intensity in NeuN positive cells in the dorsomedial striatum without a lesion (control side), as compared to vehicle treatment", "setting": "BDNF", "value": "increase"}, {"measurement": "mPFC: nM cGMP/μg protein", "setting": "cGMP [2]; mouse cortex, 10 mg/Kg P.O., 30 minutes after dosing, vehicle 0.075", "value": 0.124, "unit": "nM cGMP/μg protein"}, {"measurement": "Hippocampus: nM cGMP/μg protein", "setting": "cGMP [2]; mouse, 10 mg/Kg P.O., 30 minutes after dosing, vehicle 0.033", "value": 0.072, "unit": "nM cGMP/μg protein"}, {"measurement": "Striatum: nM cGMP/μg protein", "setting": "cGMP [2]; mouse, 10 mg/Kg P.O., 30 minutes after dosing, vehicle 0.062", "value": 0.104, "unit": "nM cGMP/μg protein"}, {"measurement": "Cerebellum: nM cGMP/μg protein", "setting": "cGMP [2]; mouse, 10 mg/Kg P.O., 30 minutes after dosing, vehicle 0.364", "value": 0.681, "unit": "nM cGMP/μg protein"}, {"measurement": "cGMP in the cerebellum versus vehicle", "setting": "cGMP [2]; mouse, acute 10 mg/Kg P.O.", "value": "significant increase"}, {"measurement": "cGMP in the cortex versus vehicle", "setting": "cGMP [2]; mouse, acute 10 mg/Kg P.O.", "value": "significant increase"}, {"measurement": "cGMP in the hippocampus versus vehicle", "setting": "cGMP [2]; mouse, acute 10 mg/Kg P.O.", "value": "significant increase"}, {"measurement": "% of activity vs. vehicle, healthy rats tail flick test", "setting": "Healthy rats", "value": 15, "unit": "%"}, {"measurement": "Recognition Index, Mean (0 to 3 minute time bin)", "setting": "male Long Evans rats; I-2 0.1 mg/kg oral + MK-801 0.1 mg/kg IP", "value": 68.21, "unit": "%"}, {"measurement": "Reversal of MK-801-induced memory deficits, 0-3 minute time range", "setting": "male Long Evans rats; [3]", "value": "significantly reversed"}, {"measurement": "Reversal of MK-801-induced memory deficits, 0-5 minute time range", "setting": "male Long Evans rats; [3]", "value": "significantly reversed"}, {"measurement": "Recognition Index, Mean (0 to 3 minute time bin)", "setting": "male Long Evans rats; I-2 1 mg/kg oral + MK-801 0.1 mg/kg IP", "value": 63.98, "unit": "%"}, {"measurement": "Recognition Index, Mean (0 to 3 minute time bin)", "setting": "male Long Evans rats; I-2 10 mg/kg oral + MK-801 0.1 mg/kg IP", "value": 61.76, "unit": "%"}, {"measurement": "% of activity vs. vehicle, carrageenan paw pressure test", "setting": "rats", "value": 75, "unit": "%"}]}]}
